According to PubChem BioAssay (NCI):
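Cells were grown in 96-well plates and exposed to each compound for 48 hours at five concentrations; endpoints were interpolated linearly between bracketing concentrations, or set to the highest concentration if not reached. TGI is the concentration that stops growth completely.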

Columns and labels:
Assay in all cases: DTP human tumour cell line panel, 48 h
MDA-N = test system: MDA-N
CAKI-1 renal = test system: CAKI-1 renal
U251 CNS = test system: U251 CNS
A498 renal = test system: A498 renal
SK-MEL-28 melanoma = test system: SK-MEL-28 melanoma
HL-60(TB) leukemia = test system: HL-60(TB) leukemia
OVCAR-3 ovarian = test system: OVCAR-3 ovarian
RXF 393 renal = test system: RXF 393 renal
SN12C renal = test system: SN12C renal
KM12 colon = test system: KM12 colon
COLO 205 colon = test system: COLO 205 colon
UACC-62 melanoma = test system: UACC-62 melanoma
UO-31 renal = test system: UO-31 renal
UACC-257 melanoma = test system: UACC-257 melanoma
SF-268 CNS = test system: SF-268 CNS
SNB-75 CNS = test system: SNB-75 CNS
HT29 colon = test system: HT29 colon
NCI-H460 lung = test system: NCI-H460 lung
T-47D breast = test system: T-47D breast
HOP-62 NSCLC = test system: HOP-62 NSCLC
SF-539 CNS = test system: SF-539 CNS
MOLT-4 leukemia = test system: MOLT-4 leukemia
HCT-15 colon = test system: HCT-15 colon
LOX IMVI melanoma = test system: LOX IMVI melanoma
CCRF-CEM leukemia = test system: CCRF-CEM leukemia
ACHN renal = test system: ACHN renal
RPMI-8226 leukemia = test system: RPMI-8226 leukemia
SW-620 colon = test system: SW-620 colon
SK-OV-3 ovarian = test system: SK-OV-3 ovarian
PC-3 prostate = test system: PC-3 prostate
MALME-3M melanoma = test system: MALME-3M melanoma
NCI/ADR-RES ovarian = test system: NCI/ADR-RES ovarian
M14 melanoma = test system: M14 melanoma
MCF7 breast = test system: MCF7 breast
NCI-H226 lung = test system: NCI-H226 lung
SR leukemia = test system: SR leukemia
TK-10 renal = test system: TK-10 renal
SK-MEL-2 melanoma = test system: SK-MEL-2 melanoma
NCI-H23 lung = test system: NCI-H23 lung
SK-MEL-5 melanoma = test system: SK-MEL-5 melanoma
K-562 leukemia = test system: K-562 leukemia
BT-549 breast = test system: BT-549 breast
OVCAR-8 ovarian = test system: OVCAR-8 ovarian
IGROV1 ovarian = test system: IGROV1 ovarian
MDA-MB-231 breast = test system: MDA-MB-231 breast
HCT-116 colon = test system: HCT-116 colon
OVCAR-5 ovarian = test system: OVCAR-5 ovarian
HS 578T breast = test system: HS 578T breast
MDA-MB-435 = test system: MDA-MB-435
DU-145 prostate = test system: DU-145 prostate
EKVX NSCLC = test system: EKVX NSCLC
786-0 renal = test system: 786-0 renal
SNB-19 CNS = test system: SNB-19 CNS

CC1CCCc2c(-c3ccc(Cl)cc3)nc(N)c(C#N)c21 (stereo not drawn)
TGI (MDA-N): 53.4 µM | TGI (CAKI-1 renal): > 100 µM | TGI (U251 CNS): > 100 µM | TGI (A498 renal): 89 µM | TGI (SK-MEL-28 melanoma): > 100 µM | TGI (HL-60(TB) leukemia): > 100 µM | TGI (OVCAR-3 ovarian): > 100 µM | TGI (RXF 393 renal): 93.2 µM | TGI (SN12C renal): > 100 µM | TGI (KM12 colon): 56.7 µM | TGI (COLO 205 colon): 48.3 µM | TGI (UACC-62 melanoma): 40.2 µM | TGI (UO-31 renal): 61.7 µM | TGI (UACC-257 melanoma): 61.5 µM | TGI (SF-268 CNS): > 100 µM | TGI (SNB-75 CNS): 50.6 µM | TGI (HT29 colon): > 100 µM | TGI (NCI-H460 lung): 81.4 µM | TGI (T-47D breast): 35.6 µM | TGI (HOP-62 NSCLC): 63 µM | TGI (SF-539 CNS): 92.3 µM | TGI (MOLT-4 leukemia): 69.8 µM | TGI (HCT-15 colon): > 100 µM | TGI (LOX IMVI melanoma): 68 µM | TGI (CCRF-CEM leukemia): > 100 µM | TGI (ACHN renal): > 100 µM | TGI (RPMI-8226 leukemia): 37.9 µM | TGI (SW-620 colon): > 100 µM | TGI (SK-OV-3 ovarian): 83.6 µM | TGI (PC-3 prostate): 82 µM | TGI (MALME-3M melanoma): > 100 µM | TGI (NCI/ADR-RES ovarian): 71.3 µM | TGI (M14 melanoma): 86 µM | TGI (MCF7 breast): > 100 µM | TGI (NCI-H226 lung): 66.2 µM | TGI (SR leukemia): 40.5 µM | TGI (TK-10 renal): > 100 µM | TGI (SK-MEL-2 melanoma): 67.6 µM | TGI (NCI-H23 lung): 99.4 µM | TGI (SK-MEL-5 melanoma): 38.5 µM | TGI (K-562 leukemia): 93.5 µM | TGI (BT-549 breast): 53.4 µM | TGI (OVCAR-8 ovarian): 91.6 µM | TGI (IGROV1 ovarian): 66.1 µM | TGI (MDA-MB-231 breast): > 100 µM | TGI (HCT-116 colon): > 100 µM | TGI (OVCAR-5 ovarian): > 100 µM | TGI (HS 578T breast): > 100 µM | TGI (MDA-MB-435): > 100 µM | TGI (DU-145 prostate): > 100 µM | TGI (EKVX NSCLC): 65.8 µM | TGI (786-0 renal): > 100 µM | TGI (SNB-19 CNS): > 100 µM
